The results in this text go back to publication PMC4331650 (Biochimica et Biophysica Acta, 2014).

As a reminder, the inhibition is how much of the control response was suppressed.

Positions count from the first letter of the chain named.

Assay type in all cases: cell-based
For experiment [1], the target named is T1, F256A CLC-Ka/barttin (Homo sapiens, UniProt P51800, F256A).
T1 sequence (P51800 1-687 F256A): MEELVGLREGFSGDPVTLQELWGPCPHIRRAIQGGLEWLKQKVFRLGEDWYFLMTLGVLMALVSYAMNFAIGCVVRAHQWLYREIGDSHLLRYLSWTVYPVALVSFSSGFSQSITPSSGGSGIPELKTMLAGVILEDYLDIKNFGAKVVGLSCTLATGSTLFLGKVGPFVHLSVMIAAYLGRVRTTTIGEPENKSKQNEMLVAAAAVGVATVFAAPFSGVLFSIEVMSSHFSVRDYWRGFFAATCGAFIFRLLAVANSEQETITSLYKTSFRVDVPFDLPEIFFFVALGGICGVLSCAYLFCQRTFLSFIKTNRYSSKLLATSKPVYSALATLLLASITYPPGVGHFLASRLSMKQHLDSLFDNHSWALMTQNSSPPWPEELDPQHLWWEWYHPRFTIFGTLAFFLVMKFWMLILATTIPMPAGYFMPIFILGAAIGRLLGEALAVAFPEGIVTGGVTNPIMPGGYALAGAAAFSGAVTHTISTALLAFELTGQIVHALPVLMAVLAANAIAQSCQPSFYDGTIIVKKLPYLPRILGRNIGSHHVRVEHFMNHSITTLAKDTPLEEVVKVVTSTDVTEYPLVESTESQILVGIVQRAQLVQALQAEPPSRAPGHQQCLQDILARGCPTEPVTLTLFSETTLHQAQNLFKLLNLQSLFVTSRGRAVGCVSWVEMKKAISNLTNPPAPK
T1 sequence (Q8WZ55 1-320 partner): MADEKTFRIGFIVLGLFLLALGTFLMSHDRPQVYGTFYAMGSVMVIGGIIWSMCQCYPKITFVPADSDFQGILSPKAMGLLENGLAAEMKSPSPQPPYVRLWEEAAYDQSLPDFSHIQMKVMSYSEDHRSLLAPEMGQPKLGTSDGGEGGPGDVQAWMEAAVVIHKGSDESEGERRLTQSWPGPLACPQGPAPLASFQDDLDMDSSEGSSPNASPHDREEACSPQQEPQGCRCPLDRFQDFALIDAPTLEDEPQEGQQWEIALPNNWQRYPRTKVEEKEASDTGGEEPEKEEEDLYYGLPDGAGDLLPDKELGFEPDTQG
As to the kind of experiment: NFA effect on F256A CLC-Ka/barttin, whole-cell patch clamp in HEK293 cells. Background: Patch clamp records ionic current or voltage across a cell membrane.

Experiment [2] concerns the target T2, WT CLC-Ka (Homo sapiens, UniProt P51800).
T2 sequence (P51800 1-687): T1 sequence (P51800 1-687 F256A) with A256F
T2 sequence (Q8WZ55 1-320 Y98A partner): T1 sequence (Q8WZ55 1-320 partner) with Y98A
As to the kind of experiment: NFA modulation of WT CLC-Ka currents, voltage clamp in Xenopus oocytes.

The target in experiment [3] is T3, N257A CLC-Ka (Homo sapiens, UniProt P51800, N257A).
T3 sequence (P51800 1-687 N257A): T1 sequence (P51800 1-687 F256A) with A256F, N257A
T3 sequence (Q8WZ55 1-320 Y98A partner): T1 sequence (Q8WZ55 1-320 partner) with Y98A
Put plainly: NFA effect on N257A CLC-Ka currents, voltage clamp in Xenopus oocytes.

Regarding `O=C(O)c1cccnc1Nc1cccc(C(F)(F)F)c1` [NFA, niflumic acid], the “effect of NFA on currents” value in experiment [1] (20 μM NFA) is reported as “increased”; in experiment [1] (500 μM NFA), “inhibited”; in experiment [2] ([NFA]ext > 500 μM), “inhibited”; in experiment [2] (very low [NFA]ext) it was “not changed”; in experiment [3] (all [NFA]ext tested, from 1 to 2000 μM), “only blocked”. Further, in experiment [1] (inhibition at higher [NFA]ext), the “[NFA]ext up to which potentiation is seen” value is listed as “up to 200 μM”. In addition, the current increase in experiment [2] (200 μM NFA, WT CLC-Ka in Xenopus oocytes) turned out to be 3 fold. Moreover, in experiment [2] (at 500 μM NFA, currents at 60 mV normalized to 0 NFA), the “maximal stimulation of currents” value was 4 fold. Besides, in experiment [3] (read-out: inhibition of currents), the inhibition at 5 µM is about 90%.
